These are literature values, as cited in patent publication US8293845B2, “Irritation mitigating polymers and uses therefor” (priority 2006, dated 2012).

SMILES strings stand for the structures.

The conditions of this data set: from Schoenberg, Household & Personal Products Industry 1979.

With `CCCCCCCCCCCCOS(=O)(=O)[O-].[Na+]` [sodium lauryl sulfate], the eye irritation result is on record as “causes significant eye irritation”.
